Reference: US6660872B1, “Method of producing methoxyimino acetic amide” (Bayer Aktiengesellschaft, priority 1999, dated 2003)
Values joined by “and” are separate entries in the source; they are usually repeats but may differ in a detail not shown here. Identical values can stand only once.

Experiment: determination of the logP-Values by HPLC according to EEC-Direktive 79/831 Annex V. A8
Type: physicochemical
Details: gradient method, acetonitrile/0,1% aqueous phosphoric acid; for chromatographic logP: HPLC (gradient, acetonitrile/0.1% aqueous phosphoric acid), read-out: log p
Procedure: The determination of the logP-Values was carried out for all examples according to the EEC-Direktive 79/831 Annex V. A8 by HPLC (gradient method, acetonitrile/0,1% aqueous phosphoric acid).

log p | chromatographic logP | Compound
3.01 | – | CNC(=O)/C(=N/OC)c1ccccc1Oc1ncnc(Oc2ccccc2Cl)c1F (single isomer, unassigned) [XI-2, E-isomer, N-methyl-E-2-[2-(5-fluoro-2′-chlorophenoxypyrimidin-4-yloxy)phenyl]-2-methoxyiminoacetamide]
2.95 and 2.94 | – | CNC(=O)/C(=N\OC)c1ccccc1Oc1ncnc(Oc2ccccc2Cl)c1F (single isomer, unassigned) [XI-2, Z-isomer, N-methyl-Z-2-[2-(5-fluoro-2′-chlorophenoxypyrimidin-4-yloxy)-phenyl]-2-methoxyiminoacetamide]
– | 1.55 | O=C1Oc2ccccc2/C1=N\O [E-benzofuran-2,3-dione 3-oxime]
– | 0.98 | CNC(=O)/C(=N/OC)c1ccccc1O [N-methyl-E-2-(2-hydroxyphenyl)-2-methoxyimino-acetamide]
– | 1.95 | CNC(=O)/C(=N/OC)c1ccccc1Oc1ncnc(F)c1F [N-methyl-E-2-[2-(5,6-difluoropyrimidin-4-yloxy)-phenyl]-2-methoxyiminoacetamide]
– | 1.29 | CNC(=O)/C(=N\OC)c1ccccc1O [N-methyl-Z-2-(2-hydroxyphenyl)-2-methoxyiminoacetamide]
– | 1.87 | CNC(=O)/C(=N\OC)c1ccccc1Oc1ncnc(F)c1F [N-methyl-Z-2-[2-(5,6-difluoro-pyrimidin-4-yloxy)phenyl]-2-methoxyiminoacetamide]
3.50 | 3.51 | CNC(=O)/C(=N/OC)c1ccccc1Oc1ncnc(Oc2cccc(Cl)c2C)c1F [XI-1, E-isomer, N-methyl-E-2-[2-(5-fluoro-2′-methyl-3′-chlorophenoxypyrimidin-4-yloxy)phenyl]-2-methoxyiminoacetamide]
3.43 | 3.44 | CNC(=O)/C(=N\OC)c1ccccc1Oc1ncnc(Oc2cccc(Cl)c2C)c1F [XI-1, Z-isomer, N-methyl-Z-2-[2-(5-fluoro-2′-methyl-3′-chlorophenoxy-pyrimidin-4-yloxy)phenyl]-2-methoxyiminoacetamide]
– | 1.87 | COC(=O)C(=O)c1ccccc1O [methyl 2-hydroxyphenylglyoxylate]
– | 0.95 | COC(=O)/C(=N/O)c1ccccc1O [methyl E-2-(2-hydroxyphenyl)-2-hydroxyimino-acetate]
– | 1.48 | CO/N=C(/C(=O)OC)c1ccccc1O [methyl E-2-(2-hydroxyphenyl)-2-methoxyimino-acetate]
1.70 | 1.68 | COC(=O)/C(=N\O)c1ccccc1O [methyl Z-2-(2-hydroxyphenyl)-2-hydroxyimino-acetate]
2.38 and 2.37 | 2.39 | CO/N=C(\C(=O)OC)c1ccccc1O [methyl Z-2-(2-hydroxyphenyl)-2-methoxyimino-acetate]
